According to patent US20100203175A1, “DEGLYCATION OF AGEs” (BASF BEAUTY CARE SOLUTIONS FRANCE S.A.S., priority 2007, published 2010):

Each compound was assayed against AGEs (bovine serum albumin (BSA) incubated with a reducing sugar) (Bos taurus, UniProt P02769) (assay: Reversion of the Maillard reaction: deglycation of AGEs prepared from bovine serum albumin and glucose, fluorescence read-out). Conditions: characterized molecules, in particular at 1×10^−1% in water or DMSO; about 50° C., 3 weeks; fluorescence with active principle versus positive control (15 mM aminoguanidine).
Chain of AGEs (bovine serum albumin (BSA) incubated with a reducing sugar) (P02769 25-607): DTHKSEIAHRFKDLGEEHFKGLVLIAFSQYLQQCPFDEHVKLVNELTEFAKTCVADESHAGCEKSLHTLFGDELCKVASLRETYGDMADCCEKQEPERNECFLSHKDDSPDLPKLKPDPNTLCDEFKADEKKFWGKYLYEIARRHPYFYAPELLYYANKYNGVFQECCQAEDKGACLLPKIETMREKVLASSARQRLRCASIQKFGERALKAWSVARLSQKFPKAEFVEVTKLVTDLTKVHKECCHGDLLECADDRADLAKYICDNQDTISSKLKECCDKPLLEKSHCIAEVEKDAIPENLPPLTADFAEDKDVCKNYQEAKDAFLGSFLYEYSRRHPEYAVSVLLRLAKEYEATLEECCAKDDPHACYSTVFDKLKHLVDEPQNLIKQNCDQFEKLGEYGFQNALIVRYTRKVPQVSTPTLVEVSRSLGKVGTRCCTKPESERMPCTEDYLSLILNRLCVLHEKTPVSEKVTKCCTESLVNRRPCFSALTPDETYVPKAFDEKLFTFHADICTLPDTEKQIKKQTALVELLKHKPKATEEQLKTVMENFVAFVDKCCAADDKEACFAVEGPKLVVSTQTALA
Format: biochemical
Experimental: The preparation of a solution containing a protein and a reducing sugar was carried out extemporaneously as follows: a solution of bovine serum albumin (BSA) at a concentration between 1.5 μM and 1.5M, preferably between 15 μM and 500 μM was incubated with a solution of a reducing sugar such as glucose, fructose, etc., preferably with glucose at a concentration between 0.1M and 10M and preferably between 0.5M and 5M.
The incubation was maintained between 1 and 5 weeks, and preferably for 3 weeks.
The measure of inhibition of the AGEs was carried out by measuring the fluorescence (excitation wavelength between 350 and 375 nm, preferably at 355 nm; emission wavelength between 420 and 450 nm, preferably at 430 nm). The reversion of the Maillard reaction was calculated by comparing the fluorescence of AGEs set at 100% (maximum fluorescence) with the fluorescence of AGEs+active agent tested.
The preparation of a protein/reducing sugar solution was carried out according to the method described in Example 1 (paragraph 1).
The preparation of a solution of protein/reducing sugar was carried out according to the method described in Example 1 (paragraph 1). […]
In the case of `Oc1cc(O)c2c(c1)O[C@@H](c1ccc(O)c(O)c1)[C@H](O)C2` (relative stereo) [trans-3,3′,4′,5,7-Pentahydroxyflavane], the “% deglycation” value is reported as 100%.
In the case of `Oc1cc(O)cc(O)c1` [1,3,5-Trihydroxybenzene (phloroglucinol), 1,3,5-Trihydroxybenzene], the “% deglycation” value is reported as 100%.
With `O=c1cc(CO)occ1O` [2-Hydroxymethyl-5-hydroxy-γ-pyrone] the “% deglycation” value was 97%.
`O=C(O)C=Cc1ccc(O)c(O)c1` [3,4-Dihydroxycinnamic acid] was tested, and the “% deglycation” value was 88%.
With `O=C(O)Cc1ccc(O)c(O)c1` [3,4-Dihydroxyphenylacetic acid (DOPAC), 3,4-Dihydroxyphenylacetic acid] the “% deglycation” value was 100%.
`COc1cc(C=CC(=O)O)cc(OC)c1O` [3,5-Dimethoxy-4-hydroxycinnamic acid] was tested, and the “% deglycation” value was 100%.
For `Nc1ccc(O)cc1` [4-Aminophenol], the “% deglycation” value was 100%.
With `Cc1c(C)c2c(c(C)c1O)CCC(C)(C(=O)O)O2` (centres unmarked) [6-Hydroxy-2,5,7,8-tetramethylchromane-2-carboxylic acid] the “% deglycation” value was 100%.
`Cc1cn2c(=O)c3ccccc3nc2n2c(=O)c3ccccc3nc12` [6-Methyl-5,7a,13,13b-tetraazapentaphene-8,14-dione] was tested, and the “% deglycation” value was 100%.
With `Cc1cc(C)c2c(c1O)C(=O)OC2` [7-Hydroxy-4,6-dimethyl phthalide] the “% deglycation” value was 100%.
For `Oc1ccc2cc[nH]c2c1` [Indole alcohol amine II, 6-Hydroxyindole], the “% deglycation” value was 100%.
`CC(Cc1ccc(O)c(O)c1)C(C)Cc1ccc(O)c(O)c1` (centres unmarked) [Nordihydroguaiaretic acid] was tested, and the “% deglycation” value was 100%.
For `O=C1Cc2ccccc2N1` [Oxindole], the “% deglycation” value was 100%.
For `CNC(=O)Oc1ccc2c(c1)[C@]1(C)CCN(C)[C@@H]1N2C` [Physostigmine], the “% deglycation” value was 87%.
